Laboratory results taken from US10857128B2, “Methods and compositions for treating inflammatory diseases” (Helmholtz Zentrum München Deutsches Forschungszentrum für …, priority 2017, dated 2020).

Test system: murine naïve CD4+ T cells
Test: In vitro differentiation of murine primary T cells (Th1, Th2, Treg)
Assay type: cell-based, Balb/c mice
Conditions: 10 or 50 μM D-Trp
Text: Differentiation of murine primary T cells. Murine spleens from female Balb/c mice were filtered through a 40 μm filter to generate single cell suspensions. These were then subjected to red blood cell lysis by using RBC lysis buffer (Biolegend, San Diego, USA) according to the manufacturer's recommendations. Afterwards, naïve CD4^+ T cells were isolated via magnetic-activated cell sorting (MACS) using the naïve CD4^+ T cell isolation kit (Miltenyi Biotec, Bergisch-Gladbach, Germany). The resulting naïve CD4^+ T cells were cultured in 96 wells plates (1×10^6 cells/ml Medium) in TexMACS medium supplemented with 10% FCS, 0.01 mM 2-Mercaptoethanol, rIL-2 (10 ng/ml) as well as MACSiBead particles with anti-CD3 and anti-CD28 (1×10^6 beads per 1×10^6 cells) (all Miltenyi Biotec). Cells were differentiated over a period of 6 days towards Th1 (10 ng/ml IL12 and 10 μg/ml anti-IL4, derived from Cytobox Th1), Th2 (10 ng/ml II4 and 10 μg/ml anti-Ifnγ, derived from Cytobox Th2) and Treg (5 ng/ml) (all Miltenyi Biotec). Differentiation of cells was assessed by flow cytometry (see FIG. 15 for gating strategy), enhanced cytometric bead array (CBA) from cell culture supernatants and qRT-PCR. Prior to CBA and flow cytometry, cells were stimulated with monensin (0.7 μL/mL, BD Golgi Stop, BD Bioscience, Heidelberg, Germany) for 4 h at 37° C. in the prescence of lonomycin (500 ng/ml, Sigma Aldrich, Missouri, USA) and PMA (5 ng/ml, Sigma Aldrich, Missouri, USA).
Assessment of cytokines by cytometric bead array. Levels of II4, II5 and II13 were analysed in BALF and cell culture supernatants using an enhanced cytometric bead array (eCBA, Fex Set Kits, BD Biosciences, Franklin Lakes, N.J., USA) according to the manufacturer's guidelines.
Gene expression analysis. Total RNA was isolated from homogenized lung tissue or cell culture using the miRNeasy Micro Kit according to manufacturer's instructions (Qiagen, Venlo, Netherlands). Concentrations were determined using a NanoDrop® ND-1000 (NanoDrop Technologies, Erlangen, Germany) spectrophotometer. mRNA was transcribed to cDNA with the QuantiTect Rev. Transcription kit (Qiagen, Venlo, Netherlands) and PCR for specific genes was performed on a LightCycler 480 platform with Light Cycler 480 SYBR Green I Mastermix (Roche, Mannheim, Germany).

## N[C@H](Cc1c[nH]c2ccccc12)C(=O)O [D-tryptophan]
6 days
  Th1 differentiation: remained unaffected
  Th2 cell differentiation: reduced
Th1 conditions
  lfng expression: remained unaffected
Th2 conditions
  II-4, Gata3 expression and II-13 secretion: reduced
Treg conditions
  Foxp3 expression of Treg cells on mRNA and protein level: increased
